Numbered stars: 1 amine (or outer) side, 2 acyl side, 3 side chain; on linkers, the order of the positions; unused ones are H or OH. Bridge positions count the residues as written; N and C are the ends. Square brackets hold non-standard residues; d marks the D form. * marks the point of attachment. PEG24 = NCCOCCOCCOCCOCCOCCOCCOCCOCCOCCOCCOCCOCCOCCOCCOCCOCCOCCOCCOCCOCCOCCOCCOCCOCCC(=O)O; C20 diacid = O=C(O)CCCCCCCCCCCCCCCCCCC(=O)*; γGlu = O=C(O)[C@H](CCC(=O)[*:2])N[*:1]; 4Pal = N[C@@H](Cc1ccncc1)C(=O)O; Dap = NC[C@H](N)C(=O)O; CH2 = C([*:1])[*:2]
How the values were obtained:
plasma cGMP = experiment: In vivo monkey studies, plasma cGMP ELISA; design: species or system male cynomolgus monkeys; conditions: for Net cGMP (nM) Change from Baseline 0.083 h: 0.083 h postdose; for Net cGMP (nM) Change from Baseline 0.083 h / Net cGMP (nM) Change from Baseline 0.25 h / Net cGMP (nM) Change from Baseline 0.5 h / Net cGMP (nM) Change from Baseline 1 h / Net cGMP (nM) Change from Baseline 2 h / Net cGMP (nM) Change from Baseline 4 h / Net cGMP (nM) Change from Baseline 8 h / Net cGMP (nM) Change from Baseline 12 h / Net cGMP (nM) Change from Baseline 24 h / Net cGMP (nM) Change from Baseline 36 h / Net cGMP (nM) Change from Baseline 48 h / Net cGMP (nM) Change from Baseline 72 h / Net cGMP (nM) Change from Baseline 96 h / Net cGMP (nM) Change from Baseline 120 h / Net cGMP (nM) Change from Baseline 144 h / Net cGMP (nM) Change from Baseline 168 h: monkey plasma; for Net cGMP (nM) Change from Baseline 0.25 h: 0.25 h postdose; for Net cGMP (nM) Change from Baseline 0.5 h: 0.5 h postdose; for Net cGMP (nM) Change from Baseline 1 h: 1 h postdose; for Net cGMP (nM) Change from Baseline 2 h: 2 h postdose; for Net cGMP (nM) Change from Baseline 4 h: 4 h postdose; for Net cGMP (nM) Change from Baseline 8 h: 8 h postdose; for Net cGMP (nM) Change from Baseline 12 h: 12 h postdose; for Net cGMP (nM) Change from Baseline 24 h: 24 h postdose; for Net cGMP (nM) Change from Baseline 36 h: 36 h postdose; for Net cGMP (nM) Change from Baseline 48 h: 48 h postdose; for Net cGMP (nM) Change from Baseline 72 h: 72 h postdose; for Net cGMP (nM) Change from Baseline 96 h: 96 h postdose; for Net cGMP (nM) Change from Baseline 120 h: 120 h postdose; for Net cGMP (nM) Change from Baseline 144 h: 144 h postdose; for Net cGMP (nM) Change from Baseline 168 h: 168 h postdose; for net cGMP levels (result in words): monkeys, single SC dose, plasma
Method: In vivo monkey studies were conducted as described in detail below. Young adult-to-adult male cynomolgus monkeys were given a single dose subcutaneously (SC). Blood was collected predose and at various pre-determined timepoints throughout the study period. Aliquot of cynomolgus monkey plasma was received for cyclic cGMP (cGMP) measurement and stored at −80° C. prior to use.
Control plasma was made for determining the recovery rate of spike-in cGMP using Enzo cGMP complete ELISA kit (Enzo Life Sciences, Inc, Farmingdale, NY, cat no. ADI-901-164). Briefly, blood from male Sprague Dawley rats (Inotiv, Indianapolis, IN), about 7 months old, was collected in a BD Vacutainer EDTA tube (Becton Dickinson, Franklin Lakes, NJ, cat no. BD-367856) with volume of approximate 4 mL through retro orbital bleeding. Plasma was prepared by spinning the tube in an Eppendorf Refrigerated Centrifuge 5810R (Brinkman Instruments, Inc, Westbury, NY) at 3500 rpm (3000×g) for 10 min at 4° C. Plasma was collected as Positive Control plasma. Cyclic GMP (cGMP standard from Enzo cGMP complete ELISA kit) was added to the positive control plasma at a final concentration of additional 40 nM. Positive Control and Spiked-in Control plasma were aliquoted and stored at −80° C.
The cGMP content was measured using the Enzo cGMP complete ELISA kit following the manufacturer's directions with modifications as described below. The cGMP standards provided in the kit were diluted 1:3 ranging from 50 nM to 0.023 nM in 1× assay buffer that was diluted in water from 2× assay buffer provided in the kit. The cGMP standards ([…]) were transferred to a 96-well polypropylene plate (Thermo Scientific, cat no. 442587).
Plasma samples were thawed from −80° C. and diluted 1:20 in 1× assay buffer in the above plate with a final volume of 150 μL. Assay buffer was added (150 μL) for both a non-specific binding control (in the absence of cGMP antibody) and a maximum binding control (in the absence of competing cGMP) in duplicate wells. Positive Control and Spiked-in Control plasma were diluted 1:20 in 1× assay buffer with a final volume of 150 μL in duplicate wells of the above plate. All diluted plasma was mixed by pipetting up and down several times.
Acetylation reagent mix was prepared by adding 1-part of acetic anhydride into 2-parts of triethylamine provided in the kit and mixing well using Vortex (Scientific Industries, Inc, Bohemia, NY). All controls, standards, and plasma samples were acetylated by adding 15 μL of acetylation reagent mix into the plate, one column at a time, and shaking for 1 min on a Titer Plate Shaker (Lab-Line Instrument, Inc., Melrose Park, IL) at room temperature. The plate was shaken for an additional 1 min following the acetylation of the last column to ensure the reaction was completed.
Acetylated controls, standard and plasma samples were transferred (100 μL) to an ELISA plate (n=1). Then 50 μL of cGMP conjugate were added to each well followed by the addition of 50 μL cGMP antibody to each well except for two non-specific binding wells, in which 50 μL of 1× assay buffer were added. The plate was then sealed and shaken for 2 h at room temperature on the plate shaker. Following this incubation, the plate was washed five times using 200 μL of 1× wash buffer diluted in water from 5× wash buffer provided in the kit. Then, 200 μL of para-Nitrophenylphosphate (pNpp) were added to each well. The plate was sealed with a new plate sealer and shaken in dark for 1 h at room temperature on the plate shaker. Finally, 50 μL of stop solution were added to each well to stop the enzyme reaction. The plate was then read at 405 nm using SpectraMax Plus (Molecular Devices, San Jose, CA).
The mean absorbance at 405 nm (O.D. 405 nm) for the non-specific binding controls was subtracted from the O.D. 405 nm of all samples. The subtracted O.D. 405 nm of all samples were then normalized with the mean subtracted O.D. 405 nm of the maximum binding controls as B/B0%. […]

[1] = Pharmacokinetics in male Sprague Dawley rats; format: in vivo; conditions: rat, sc, mean, single subcutaneous administration of 200 nMol/kg, plasma
Method: The pharmacokinetics of the exemplary analogs are evaluated following a single subcutaneous administration of […] to male Sprague Dawley rats. Blood samples are collected over 120 hours, and resulting individual plasma concentrations are used to calculate pharmacokinetic parameters. Peptide plasma (K3 EDTA) concentrations are determined using a qualified LC/MS method that measured the intact mass of the ANP polypeptide. Each peptide and an analog as an internal standard are extracted from 100% specie specified plasma using methanol with 0.1% formic acid. A Thermo Q-Exactive, High Resolution Instrument, and a Thermo Easy Spray PepMap are combined for LC/MS detection.

{C20 diacid-γGlu}-EKEKEKG[PEG24]S[4Pal]RRSSCFGGRIDRIGHQSGLGCPSFRHGGPSSGAPPPS-NH2 (linker 15-31 via CH2) [Example 61]
Net cGMP (nM) Change from Baseline 0.083 h (plasma cGMP; dose 100 nmol/kg): 4.41 nM
Net cGMP (nM) Change from Baseline 0.25 h (plasma cGMP; dose 100 nmol/kg): 24.85 nM
Net cGMP (nM) Change from Baseline 0.5 h (plasma cGMP; dose 100 nmol/kg): 27.32 nM
Net cGMP (nM) Change from Baseline 1 h (plasma cGMP; dose 100 nmol/kg): 28.35 nM
Net cGMP (nM) Change from Baseline 2 h (plasma cGMP; dose 100 nmol/kg): 25.21 nM
Net cGMP (nM) Change from Baseline 4 h (plasma cGMP; dose 100 nmol/kg): 28.38 nM
Net cGMP (nM) Change from Baseline 8 h (plasma cGMP; dose 100 nmol/kg): 33.73 nM
Net cGMP (nM) Change from Baseline 12 h (plasma cGMP; dose 100 nmol/kg): 23.51 nM
Net cGMP (nM) Change from Baseline 24 h (plasma cGMP; dose 100 nmol/kg): 27.96 nM
Net cGMP (nM) Change from Baseline 36 h (plasma cGMP; dose 100 nmol/kg): 24.75 nM
Net cGMP (nM) Change from Baseline 48 h (plasma cGMP; dose 100 nmol/kg): 11.81 nM
Net cGMP (nM) Change from Baseline 72 h (plasma cGMP; dose 100 nmol/kg): 14.82 nM
Net cGMP (nM) Change from Baseline 96 h (plasma cGMP; dose 100 nmol/kg): 20.25 nM
Net cGMP (nM) Change from Baseline 120 h (plasma cGMP; dose 100 nmol/kg): 12.15 nM
Net cGMP (nM) Change from Baseline 144 h (plasma cGMP; dose 100 nmol/kg): 18 nM
Net cGMP (nM) Change from Baseline 168 h (plasma cGMP; dose 100 nmol/kg): 11.81 nM
net cGMP levels (result in words) (plasma cGMP): increased net cGMP levels
CL/F [1]: 1.08 mL/min/kg
half-life ([1]; read-out: t½ (converted)): 6 h

CC[C@H](C)[C@@H]1NC(=O)[C@H](CCCNC(=N)N)NC(=O)[C@H](CC(=O)O)NC(=O)[C@H]([C@@H](C)CC)NC(=O)[C@H](CCCNC(=N)N)NC(=O)[C@H](CCCCN)NC(=O)CNC(=O)[C@H](Cc2ccccc2)NC(=O)[C@@H](NC(=O)[C@H](CO)NC(=O)[C@H](CO)NC(=O)[C@H](CCCNC(=N)N)NC(=O)CCNC(=O)[C@H](CCCCN)NC(=O)[C@H](CCC(=O)O)NC(=O)COCCOCCNC(=O)COCCOCCNC(=O)COCCOCCNC(=O)COCCOCCNC(=O)COCCOCCNC(=O)COCCOCCNC(=O)CNC(=O)[C@H](CCCCN)NC(=O)[C@H](CCC(=O)O)NC(=O)[C@H](CCCCN)NC(=O)[C@H](CCC(=O)O)NC(=O)[C@H](CCCCN)NC(=O)[C@H](CCC(=O)O)NC(=O)CC[C@H](NC(=O)CCCCCCCCCCCCCCCCCCC(=O)O)C(=O)O)CSCSC[C@@H](C(=O)N2CCC[C@H]2C(=O)N[C@@H](CO)C(=O)N[C@@H](Cc2ccccc2)C(=O)N[C@@H](CCCNC(=N)N)C(=O)N[C@@H](Cc2c[nH]cn2)C(=O)NCC(=O)NCC(=O)N[C@@H](CCCCN)C(=O)N[C@@H](CO)C(=O)N[C@@H](CO)C(=O)NCC(=O)N[C@@H](C)C(=O)N2CCC[C@H]2C(=O)N2CCC[C@H]2C(=O)N2CCC[C@H]2C(=O)N[C@@H](CO)C(N)=O)NC(=O)CNC(=O)[C@H](CC(C)C)NC(=O)CNC(=O)[C@H](CO)NC(=O)[C@H](CCC(N)=O)NC(=O)[C@H](Cc2c[nH]cn2)NC(=O)CNC1=O [Example 89]
Net cGMP (nM) Change from Baseline 0.083 h (plasma cGMP; dose 100 nmol/kg): 6.83 nM
Net cGMP (nM) Change from Baseline 0.25 h (plasma cGMP; dose 100 nmol/kg): 20.73 nM
Net cGMP (nM) Change from Baseline 0.5 h (plasma cGMP; dose 100 nmol/kg): 33.07 nM
Net cGMP (nM) Change from Baseline 1 h (plasma cGMP; dose 100 nmol/kg): 35.04 nM
Net cGMP (nM) Change from Baseline 2 h (plasma cGMP; dose 100 nmol/kg): 36.11 nM
Net cGMP (nM) Change from Baseline 4 h (plasma cGMP; dose 100 nmol/kg): 42.86 nM
Net cGMP (nM) Change from Baseline 8 h (plasma cGMP; dose 100 nmol/kg): 36.71 nM
Net cGMP (nM) Change from Baseline 12 h (plasma cGMP; dose 100 nmol/kg): 33.87 nM
Net cGMP (nM) Change from Baseline 24 h (plasma cGMP; dose 100 nmol/kg): 30.9 nM
Net cGMP (nM) Change from Baseline 36 h (plasma cGMP; dose 100 nmol/kg): 24.59 nM
Net cGMP (nM) Change from Baseline 48 h (plasma cGMP; dose 100 nmol/kg): 16.29 nM
Net cGMP (nM) Change from Baseline 72 h (plasma cGMP; dose 100 nmol/kg): 15.56 nM
Net cGMP (nM) Change from Baseline 96 h (plasma cGMP; dose 100 nmol/kg): 12.74 nM
Net cGMP (nM) Change from Baseline 120 h (plasma cGMP; dose 100 nmol/kg): 18.95 nM
Net cGMP (nM) Change from Baseline 144 h (plasma cGMP; dose 100 nmol/kg): 12.03 nM
Net cGMP (nM) Change from Baseline 168 h (plasma cGMP; dose 100 nmol/kg): 8.03 nM
net cGMP levels (result in words) (plasma cGMP): increased net cGMP levels

{C20 diacid-γGlu}-EKEKEKGEKPRSSCFG[Dap]RIDRIGHYSGLGCPSFRHGSPSSGAPPPS-NH2 (linker 14-30 via CH2) [Example 136]
Net cGMP (nM) Change from Baseline 0.083 h (plasma cGMP; dose 50 nmol/kg): 3.25 nM
Net cGMP (nM) Change from Baseline 0.25 h (plasma cGMP; dose 50 nmol/kg): 12.48 nM
Net cGMP (nM) Change from Baseline 0.5 h (plasma cGMP; dose 50 nmol/kg): 20.78 nM
Net cGMP (nM) Change from Baseline 1 h (plasma cGMP; dose 50 nmol/kg): 12.12 nM
Net cGMP (nM) Change from Baseline 2 h (plasma cGMP; dose 50 nmol/kg): 9.42 nM
Net cGMP (nM) Change from Baseline 4 h (plasma cGMP; dose 50 nmol/kg): 8.76 nM
Net cGMP (nM) Change from Baseline 8 h (plasma cGMP; dose 50 nmol/kg): 7.65 nM
Net cGMP (nM) Change from Baseline 12 h (plasma cGMP; dose 50 nmol/kg): 7.65 nM
Net cGMP (nM) Change from Baseline 24 h (plasma cGMP; dose 50 nmol/kg): 11.83 nM
Net cGMP (nM) Change from Baseline 36 h (plasma cGMP; dose 50 nmol/kg): 11.18 nM
Net cGMP (nM) Change from Baseline 48 h (plasma cGMP; dose 50 nmol/kg): 5.65 nM
Net cGMP (nM) Change from Baseline 72 h (plasma cGMP; dose 50 nmol/kg): 2.61 nM
Net cGMP (nM) Change from Baseline 96 h (plasma cGMP; dose 50 nmol/kg): 2.05 nM
Net cGMP (nM) Change from Baseline 120 h (plasma cGMP; dose 50 nmol/kg): 2.71 nM
Net cGMP (nM) Change from Baseline 144 h (plasma cGMP; dose 50 nmol/kg): 3.72 nM
Net cGMP (nM) Change from Baseline 168 h (plasma cGMP; dose 50 nmol/kg): 3.36 nM
net cGMP levels (result in words) (plasma cGMP): increased net cGMP levels
